From US11739070B2, “C5A receptor modulators” (IDORSIA PHARMACEUTICALS LTD, priority 2018, dated 2023)

The compounds below were run against T1, C5AR1 (Homo sapiens, UniProt P21730) (assay: hC5a DISCO IC50 assay (PathHunter beta-arrestin, antagonist mode)). Details: CHO-K1 C5AR1 beta-arrestin cell line; antagonist vs 1-10 nM C5a agonist; geometric mean values; read-out: C5aR IC50.
T1 construct: host or cells: CHO-K1
T1 sequence (P21730 1-350): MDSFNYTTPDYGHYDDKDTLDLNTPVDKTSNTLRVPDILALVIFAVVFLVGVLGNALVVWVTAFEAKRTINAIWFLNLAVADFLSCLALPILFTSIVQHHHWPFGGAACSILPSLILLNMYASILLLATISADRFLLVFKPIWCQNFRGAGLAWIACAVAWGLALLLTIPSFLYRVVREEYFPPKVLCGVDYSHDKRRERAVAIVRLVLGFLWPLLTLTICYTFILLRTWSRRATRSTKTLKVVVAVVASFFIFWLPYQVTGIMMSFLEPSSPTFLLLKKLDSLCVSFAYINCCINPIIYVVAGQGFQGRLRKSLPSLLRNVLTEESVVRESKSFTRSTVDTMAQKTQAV
Type: cell-based
Procedure: II. Biological Assays In Vitro Assay hC5a DISCO IC50 Assay
5 μl Antagonist at 6-fold end concentration or DMSO control is added to assay medium and subsequently 5 μl 1-10 nM C5a agonist at 6 fold end concentration. Cells are centrifuged for 1 min at 1000 rpm and incubated for 1.5 hour in at 37° C. Plates are equilibrated at room temperature for several minutes before adding 12 μl/well Detection Reagent (PathHunter Detection Kit, DiscoverX, Cat #93-0001). Plates are centrifuged for 1 min at 1000 rpm and incubated for 45 minutes at RT before being measured on a Fluostar Optima, BMG Labtech. IC50 values are calculated from a serial dilution range of antagonist using inhouse software and given in nmol/l.
The calculated IC50 values may fluctuate depending on the daily cellular assay performance. Fluctuations of this kind are known to those skilled in the art. Average IC50 values from several measurements are given as geometric mean values.

IC50 [nM] | SMILES
139 | COc1cccc2c1n(Cc1ccccc1C(F)(F)F)c(=O)n2[C@H]1CN(C(=O)OC(C)(C)C)C[C@@H]1C (relative stereo) [Example 196, (3R*,4S*)-3-[4-Methoxy-2-oxo-3-(2-trifluoromethyl-benzyl)-2,3-dihydro-benzoimidazol-1-yl]-4-methyl-pyrrolidine-1-carboxylic acid tert-butyl ester]
15 | COc1cccc2c1n(Cc1ccccc1C(F)(F)F)c(=O)n2[C@H]1CN(c2c(C)cccc2F)C[C@@H]1C (relative stereo) [Example 198, 1-[(3R*,4S*)-1-(2-Fluoro-6-methyl-phenyl)-4-methyl-pyrrolidin-3-yl]-4-methoxy-3-(2-trifluoromethyl-benzyl)-1,3-dihydro-benzoimidazol-2-one]
119 | COc1cccc2c1n(Cc1ccccc1C(F)(F)F)c(=O)n2[C@H]1CN(C(=O)OC(C)(C)C)C[C@H]1C (relative stereo) [Example 199, (3R*,4R*)-3-[4-Methoxy-2-oxo-3-(2-trifluoromethyl-benzyl)-2,3-dihydro-benzoimidazol-1-yl]-4-methyl-pyrrolidine-1-carboxylic acid tert-butyl ester]
19 | COc1cccc2c1n(Cc1ccccc1C(F)(F)F)c(=O)n2[C@H]1CN(c2c(C)cccc2F)C[C@H]1C (relative stereo) [Example 200, 1-[(3R*,4R*)-1-(2-Fluoro-6-methyl-phenyl)-4-methyl-pyrrolidin-3-yl]-4-methoxy-3-(2-trifluoromethyl-benzyl)-1,3-dihydro-benzoimidazol-2-one]
621 | COc1cccc2c1n(Cc1ccccc1C(F)(F)F)c(=O)n2C1CCN(C(=O)OC(C)(C)C)CC1 [Example 1, 4-[4-Methoxy-2-oxo-3-(2-trifluoromethyl-benzyl)-2,3-dihydro-benzoimidazol-1-yl]-piperidine-1-carboxylic acid tert-butyl ester]
18 | COc1cccc2c1n(Cc1ccccc1C(F)(F)F)c(=O)n2C1CCN(c2c(C)cccc2C)CC1 [Example 2, 1-[1-(2,6-Dimethyl-phenyl)-piperidin-4-yl]-4-methoxy-3-(2-trifluoromethyl-benzyl)-1,3-dihydro-benzoimidazol-2-one]
23 | [2H]c1ccc(OC)c2c1n(C1CCN(c3c(C)cccc3C)CC1)c(=O)n2Cc1ccccc1C(F)(F)F [Example 3, 1-(1-(2,6-dimethylphenyl)piperidin-4-yl)-4-methoxy-3-(2-(trifluoromethyl)benzyl)-1,3-dihydro-benzoimidazol-2-one-7-d]
131 | COc1cccc2c1n(Cc1ccccc1C(F)(F)F)c(=O)n2C1CCN(c2ccccc2)CC1 [Example 4, 4-Methoxy-1-(1-phenyl-piperidin-4-yl)-3-(2-trifluoromethyl-benzyl)-1,3-dihydro-benzoimidazol-2-one]
284 | COc1cccc2c1n(Cc1ccccc1C(F)(F)F)c(=O)n2C1CCN(Cc2ccc(Cl)cc2Cl)CC1 [Example 5, 1-[1-(2,4-Dichloro-benzyl)-piperidin-4-yl]-4-methoxy-3-(2-trifluoromethyl-benzyl)-1,3-dihydro-benzoimidazol-2-one]
66 | COc1cccc2c1n(Cc1ccccc1C(F)(F)F)c(=O)n2[C@@H]1CCN(C(=O)OC(C)(C)C)C1 [Example 6, (R)-3-[4-Methoxy-2-oxo-3-(2-trifluoromethyl-benzyl)-2,3-dihydro-benzoimidazol-1-yl]-pyrrolidine-1-carboxylic acid tert-butyl ester]
11 | COc1cccc2c1n(Cc1ccccc1C(F)(F)F)c(=O)n2[C@@H]1CCN(c2c(F)cccc2F)C1 [Example 7, 1-[(R)-1-(2,6-Difluoro-phenyl)-pyrrolidin-3-yl]-4-methoxy-3-(2-trifluoromethyl-benzyl)-1,3-dihydro-benzoimidazol-2-one]
32 | COc1cccc2c1n(Cc1ccccc1C(F)(F)F)c(=O)n2C1CCN(c2c(F)cccc2F)CC1 [Example 9, 1-[1-(2,6-Difluoro-phenyl)-piperidin-4-yl]-4-methoxy-3-(2-trifluoromethyl-benzyl)-1,3-dihydro-benzoimidazol-2-one]
216 | COc1cccc2c1n(Cc1ccccc1C(F)(F)F)c(=O)n2C1CCN(c2c(C=O)c(C3CC3)nn2C)CC1 [Example 14, 3-Cyclopropyl-5-{4-[4-methoxy-2-oxo-3-(2-trifluoromethyl-benzyl)-2,3-dihydro-benzoimidazol-1-yl]-piperidin-1-yl}-1-methyl-1H-pyrazole-4-carbaldehyde]
19 | COc1ccccc1N1CC[C@@H](n2c(=O)n(Cc3ccccc3C(F)(F)F)c3c(OC)cccc32)C1 [Example 16, 4-Methoxy-1-[(R)-1-(2-methoxy-phenyl)-pyrrolidin-3-yl]-3-(2-trifluoromethyl-benzyl)-1,3-dihydro-benzoimidazol-2-one]
36 | COc1cccc2c1n(Cc1ccccc1OC(F)(F)F)c(=O)n2[C@@H]1CCN(C(=O)OC(C)(C)C)C1 [Example 20, (R)-3-[4-Methoxy-2-oxo-3-(2-trifluoromethoxy-benzyl)-2,3-dihydro-benzoimidazol-1-yl]-pyrrolidine-1-carboxylic acid tert-butyl ester]
3440 | COc1cccc2c1n(Cc1ccccc1C(F)(F)F)c(=O)n2C1CCN(c2cc(C3CC3)nn2C)CC1 [Example 21, 1-[1-(5-Cyclopropyl-2-methyl-2H-pyrazol-3-yl)-piperidin-4-yl]-4-methoxy-3-(2-trifluoromethyl-benzyl)-1,3-dihydro-benzoimidazol-2-one]
30 | COc1cccc2c1n(Cc1ccccc1OC(F)(F)F)c(=O)n2[C@@H]1CCN(c2c(C)cccc2C)C1 [Example 22, 1-[(R)-1-(2,6-Dimethyl-phenyl)-pyrrolidin-3-yl]-4-methoxy-3-(2-trifluoromethoxy-benzyl)-1,3-dihydro-benzoimidazol-2-one]
8 | COc1cccc2c1n(Cc1ccccc1OC(F)(F)F)c(=O)n2[C@@H]1CCN(c2c(F)cccc2F)C1 [Example 23, 1-[(R)-1-(2,6-Difluoro-phenyl)-pyrrolidin-3-yl]-4-methoxy-3-(2-trifluoromethoxy-benzyl)-1,3-dihydro-benzoimidazol-2-one]
330 | COc1cccc2c1n(Cc1ccccc1C(F)(F)F)c(=O)n2C1CCN(c2c(Cl)c(C3CC3)nn2C)CC1 [Example 24, 1-[1-(4-Chloro-5-cyclopropyl-2-methyl-2H-pyrazol-3-yl)-piperidin-4-yl]-4-methoxy-3-(2-trifluoromethyl-benzyl)-1,3-dihydro-benzoimidazol-2-one]
185 | COc1cccc2c1n(Cc1ccccc1C(F)(F)F)c(=O)n2C1CCN(c2c(C)c(C3CC3)nn2C)CC1 [Example 25, 1-[1-(5-Cyclopropyl-2,4-dimethyl-2H-pyrazol-3-yl)-piperidin-4-yl]-4-methoxy-3-(2-trifluoromethyl-benzyl)-1,3-dihydro-benzoimidazol-2-one]
459 | COC(=O)N1CC[C@@H](n2c(=O)n(Cc3ccccc3C(F)(F)F)c3c(OC)cccc32)C1 [Example 26, (R)-3-[4-Methoxy-2-oxo-3-(2-trifluoromethyl-benzyl)-2,3-dihydro-benzoimidazol-1-yl]-pyrrolidine-1-carboxylicacid methyl ester]
3340 | COc1cccc2c1n(Cc1ccccc1C(F)(F)F)c(=O)n2[C@@H]1CCN(C(=O)c2ccccc2)C1 [Example 27, 1-((R)-1-Benzoyl-pyrrolidin-3-yl)-4-methoxy-3-(2-trifluoromethyl-benzyl)-1,3-dihydro-benzoimidazol-2-one]
1330 | COc1cccc2c1n(Cc1ccccc1C(F)(F)F)c(=O)n2C1CCN(C(=O)C(C)(C)C)CC1 [Example 28, 1-[1-(2,2-Dimethyl-propionyl)-piperidin-4-yl]-4-methoxy-3-(2-trifluoromethyl-benzyl)-1,3-dihydro-benzoimidazol-2-one]
182 | COC(=O)N1CCC(n2c(=O)n(Cc3ccccc3C(F)(F)F)c3c(OC)cccc32)CC1 [Example 29, 4-[4-Methoxy-2-oxo-3-(2-trifluoromethyl-benzyl)-2,3-dihydro-benzoimidazol-1-yl]-piperidine-1-carboxylic acid methyl ester]
1520 | COc1cccc2c1n(Cc1ccccc1C(F)(F)F)c(=O)n2C1CCN(C(=O)c2ccccc2)CC1 [Example 30, 1-(1-Benzoyl-piperidin-4-yl)-4-methoxy-3-(2-trifluoromethyl-benzyl)-1,3-dihydro-benzoimidazol-2-one]
3450 | COc1cccc2c1n(Cc1ccccc1C(F)(F)F)c(=O)n2[C@@H]1CCN(C)C1 [Example 31, 4-Methoxy-1-((R)-1-methyl-pyrrolidin-3-yl)-3-(2-trifluoromethyl-benzyl)-1,3-dihydro-benzoimidazol-2-one]
642 | COc1cccc2c1n(Cc1ccccc1C(F)(F)F)c(=O)n2[C@@H]1CCN(C(C)C)C1 [Example 32, 1-((R)-1-Isopropyl-pyrrolidin-3-yl)-4-methoxy-3-(2-trifluoromethyl-benzyl)-1,3-dihydro-benzoimidazol-2-one]
